Experimental data published in patent US20230293488A1, “COMPOSITIONS AND METHODS OF USE OF ANTIBACTERIAL DRUG COMBINATIONS” (priority 2015, published 2023).
Where “and” joins values, the source holds several entries; their conditions need not be identical. Equal values may be shown once. Entries after “also recorded” stand apart in the source; their conditions may differ.

Key:
MRSA N315 [1] = assay: In vitro MICs and FICI for MRSA N315 after passage in vivo; assay type: cell-based, Staphylococcus aureus
Excerpt: We tested MRSA N315 cultures from blood drawn from mice treated with meropenem, piperacillin, or vehicle for their in vitro MICs against ME/PI/TZ and its constituent single drugs to determine whether adaptation occurred during passage in vivo. All four tested isolates of MRSA N315 had identical MICs for the triple ME/PI/TZ and all constituent drugs, and thus identical synergy (Table 6B).
(§1) Microbiological Studies: MRSA N315 was a gift from Dr. Steven Gill, University of Rochester, Rochester, NY, USA. S. aureus ATCC 29213 was acquired from the American Type Culture Collection. De-identified clinical MRSA isolates were selected at random from the clinical isolate strain bank at Barnes-Jewish Hospital, St. Louis, MO, USA. Minimal inhibitory concentration (MIC) assays for inhibition of growth were performed following the recommendations of the Clinical and Laboratory Standards Institute (CLSI)^43. Briefly, 23 antibacterial compounds (Supplemental Table 1) were selected based on coverage of all major drug classes, including three compounds not classified as antibiotics for human use, but with known antibacterial properties. Compounds were dissolved in dimethyl sulfoxide (DMSO) to a stock concentration of 50 mg/ml. Exceptions: Sulfometuron at 20 mg/ml in DMSO; Tobramycin, D-cycloserine, and colistin at 50 mg/ml in H2O and filtered at 2 μm. The 23 compounds were formulated into all 253 possible unique pairwise combinations at fixed ratios and at 100× concentrations in solvent. To increase the range of concentrations assayed for possible synergistic or antagonistic drug interactions (>2,000-fold), the drug stocks were arrayed into threefold dilution series down eight rows in 96-well Costar master drug plates, using a BioMek FX robotic liquid handler (Beckman Coulter, Inc.). Drugs were then mixed 1:100 into 96-well plates containing 200 μl/well of cation-adjusted Mueller-Hinton broth (CAMHB). All drug susceptibility assay wells were inoculated with ˜1 μl of mid-log phase bacterial culture at 0.5 McFarland standard (˜2×10^8 CFU/ml) and grown at 37° C. for 24 h. Endpoint growth at 37° C. after 24 h was determined by optical density at 600 nm ≥0.1 using a Synergy H1 reader (BioTek, Inc.).
(§2) Bacterial isolation from blood. Blood samples were checked for bacterial growth by plating and liquid culture. Whole blood (100 μl, three samples per group) was spread onto Brain-Heart Infusion (BHI) agar plates and incubated at 36° C. overnight. Colonies were counted and three colonies were selected, grown overnight in liquid BHI culture at 36° C., then mixed 1:1 with 30% LB-glycerol and stored at −80° C. The remaining three blood samples of each group (50 μl) was added to 5 ml BHI broth and incubated overnight at 36° C. When growth was noted, cultures were mixed 1:1 with 30% LB-glycerol and stored at −80° C.

MRSA N315 [2] = assay: Neutropenic mouse peritonitis model of MRSA infection; assay type: in vivo, mice; conditions: for Result (Alive/Dead) / Result (survivors per group) / Bacterial detection results: Plated: 67 mg/kg (of each) every 8 hrs SC; for Result (Alive/Dead) / Result (survivors per group): 6 doses; for Result (Alive/Dead) / Bacterial detection results: Plated: one line per mouse; for Result (survivors per group): six days post-infection; for Bacterial detection results: Plated: cheek bleed 11 h post-infection, ~100 uL blood plated, 67 mg/kg; for mice that succumbed to the infection: most within 48 h, 67 mg/kg (of each)
Excerpt: In vivo mouse model of MRSA infection: Animals. Outbred ICR female mice (6-8 weeks old, 17-25 g body weight; Harlan Laboratories, Inc., Indianapolis, IN, USA) were used. Mice were given Teklad 2019 Extruded Rodent Diet (Harlan Laboratories, Inc., Indianapolis, IN, USA) and water ad libitum. Mice were maintained in polycarbonate shoebox cages containing corncob (The Andersons, Inc., Maumee, OH, USA) and Alpha-dri (Shepherd Specialty Papers, Inc., Richland, MI, USA) bedding under 12-h light/12-h dark cycle at 22±1° C. All procedures involving animals were approved by the University of Notre Dame Institutional Animal Care and Use Committee.
Neutropenic mouse peritonitis model of MRSA infection. Doses of cyclophosphamide (100 μl of 50 mg/ml in 0.9% saline corresponding to 200 mg/kg; Alfa Aesar, Ward Hill, MA, USA) were given intraperitoneally (IP) at 4 days and 1 day prior to infection. The S. strain N315 was streaked onto Brain-Heart Infusion (BHI; Becton Dickson and Company, Sparks, MD, USA) agar and grown overnight at 36° C. The MRSA N315 bacterial inoculum was adjusted to approximately 1×10^8 CFU/ml (corresponding to OD540=0.5), then diluted to give 2×10^7CFU/ml. A 10% porcine mucin (Sigma-Aldrich, St. Louis, MO, USA) suspension was prepared and adjusted to pH 7. Immediately prior to infection, the bacterial inocula were diluted 1:1 with 10% mucin to a final concentration of 1×10^7CFU/ml in 5% mucin. The mice were then infected IP with 0.5 ml of this inoculum. In vivo dosing of compounds in mice was compared with mean or range peak human plasma concentrations of studied β-lactams^44,46,47,62,63.
Antibiotic preparation. Meropenem was obtained from AK Scientific, Inc. (Union City, CA, USA), piperacillin and tazobactam were obtained from Sigma-Aldrich Co. (St. Louis, MO, USA). Linezolid (CAS 165800-03-3) was obtained from AmplaChem (Carmel, IN, USA). Antibiotics were dissolved at a concentration of 16.67 mg/ml in 30% DMSO/30% propylene glycol/40% water. Linezolid was used as positive control and was prepared at 7.5 mg/ml. Vehicle (30% DMSO/30% propylene glycol/40% water) was included as negative control. The dosing formulations were sterilized by passing through 0.2 μm filter prior to injection.
as §2
Statistical Analyses: Data for minimal inhibitory concentrations (MICs) are derived from triplicate measurements. Adaptation data are taken from two replicate experiments for each drug combination condition. Data for qRT-PCR expression profiling are derived from three replicate experiments taken from three biological replicates each, with standard error of measurement calculated. Mice were treated in groups of six, and growth determination of bacteria determined via plate and broth culture in triplicate. Fisher's Exact test with Bonferroni correction was used for 8 independent tests (comparing each treatment to 610 vehicle).

MRSA N315 [3] = assay: MIC assay and FICI synergy determination (checkerboard); assay type: cell-based, Staphylococcus aureus; conditions: Staphylococcus aureus, MRSA; single compounds; read-out: MIC in MRSA N315
Description: as §1
Synergy of antibiotic combinations was determined using the fractional inhibitory concentration index (FICI) method ^57,58. By this method, the MIC of the antibiotic compound in combination is divided by the MIC of the compound alone, yielding the fractional contribution of each drug component in the combination. Quotients for all in a combination are summed and drug interactions scored using the formula: FICI=(MIC Acomb A B C)/MICagent A+(MIC Bcomb A B C)/MICagent B+(MIC Ccomb A B C)/MICagentC Select pairwise combinations against MRSA were then combined with each of the 21 remaining single drugs to make triple combinations, formulated and tested in identical fashion to the double combinations. Synergy of combinations was confirmed via triplicate measurements of drug conditions at the MIC. Based on its high synergy against MRSA N315 in the sparse screening, ME/PI/TZ and its constituents were selected for further characterization. Final susceptibility testing of ME/PI/TZ and its components was performed using twofold dilution from 128 to 2 μg/ml for each component

[4] = colonies from mice given Vehicle

Compound | MIC (MRSA N315 [1]; Staphylococcus aureus, MRSA) | MIC (MRSA N315 [1]; Wild-type N315) | MIC (MRSA N315 [1]; colonies from mice given PI) | MIC (MRSA N315 [1]; [4]) | Result (Alive/Dead) (MRSA N315 [2]) | Result (survivors per group) (MRSA N315 [2]) | Bacterial detection results: Plated (MRSA N315 [2]) | mice that succumbed to the infection (MRSA N315 [2]) | MIC (MRSA N315 [3])
C[C@@H](O)[C@H]1C(=O)N2C(C(=O)O)=C(S[C@@H]3CN[C@H](C(=O)N(C)C)C3)[C@H](C)[C@H]12 [Meropenem] | 33.3 µg/mL | 33.3 µg/mL | 33.3 µg/mL | 33.3 µg/mL | Alive (4×) and Dead (2×) | 4/6 | Plated: 11 colonies; also recorded: Plated: 3 colonies | several mice | 16 µg/mL
CCN1CCN(C(=O)N[C@@H](C(=O)N[C@@H]2C(=O)N3[C@@H]2SC(C)(C)[C@@H]3C(=O)O)c2ccccc2)C(=O)C1=O [Piperacillin] | 33.3 µg/mL | 33.3 µg/mL | 33.3 µg/mL | 33.3 µg/mL | Dead | 0/6 | Plated: 40 colonies | all mice | 64 µg/mL
